Experimental data reported in patent US20050080120A1, “4-[3,5-bis-(2-hydroxy-phenyl)-[1,2,4]triazol-1-yl]-benzoic acid derivatives for treating an excess of metal in the body” (priority 2001, published 2005).

O=C(O)c1ccc(-n2nc(-c3cccc(O)c3O)nc2-c2ccccc2O)cc1 [Example 1, 4-[3-(2,3-Dihydroxy-phenyl)-5-(2-hydroxy-phenyl)-[1,2,4]triazol-1-yl]benzoic Acid]
melting point: 223 to 226 °C
